We go through three compounds from PMC10004634 (PLOS ONE, 2023).

For one assay, the target named is T1, ASK1 (Homo sapiens, UniProt Q99683).
T1 construct: gene MAP3K5
Description: biochemical. Details: KINOMEscan scanMAX competition binding, DNA-tagged kinases, qPCR read-out, percent control at 300 nM. The conditions noted are these: read-out: Percent control / Acalabrutinib.

The next assay has as its system U-2932 cells. Description: Cell viability assay (CellTiter-Glo). The assay is classed as cell-based. The settings on record: Homo sapiens, U2932, 72 h. As to the method: (§1) After incubation for 72 h at 37°C and 5% CO2/95% air, relative light units (RLU) were measured with the CellTiter-Glo Luminescent Cell Viability Assay (Promega, Madison, WI, USA). […] GraphPad Prism (version 5.01J or 5.04; GraphPad Software, Inc., San Diego, CA, USA) and its base settings were used for initial values and convergence conditions.

Another assay deals with TMD8 cells. Briefly: Cell viability assay (CellTiter-Glo). The assay is classed as cell-based. The conditions noted are these: Homo sapiens, 72 h. As to the method:
as §1

Assay [1] deals with T2, BTK (Homo sapiens, UniProt Q06187). Briefly: In vivo pharmacodynamics: BTK phosphorylation in TMD8 xenograft tumors (flow cytometry). More on the design: endogenous in cells; host or cells: TMD8 tumour cells from subcutaneous xenografts in SCID mice. The settings on record: TMD8, mouse, 1 h after final administration, read-out: BTK phosphorylation inhibition rate in tumor. As to the method: One hour after the final dosing, mice underwent laparotomy under isoflurane anesthesia and were sacrificed by exsanguination; tumors were collected. After measuring the wet weight, each tumor was placed on a 70-μm cell strainer (BD Falcon, Franklin Lakes, NJ, USA) placed in one well of a six-well plate on ice. After adding an amount of precooled culture medium, tumor cells were detached. The cell suspension was transferred to a tube and centrifuged for 8 min at 400 × g. Supernatant was excluded by aspiration, and cells were resuspended in culture medium. The tumor suspension was diluted with culture medium to a cell density of 1.0 × 10^6 cells/mL and pipetted into a 96-well plate. […] Cells were incubated for a further 10 min. Fix Buffer 1 (BD Biosciences, Franklin Lakes, NJ, USA) was added to each well, and the plate was centrifuged for 8 min at 400 × g at room temperature; the supernatant was removed by decantation. Each sample was washed twice with Perm Wash Buffer (BD Biosciences) before the addition of rabbit monoclonal p-BTK antibody (Tyr-223) (Novus Biologicals, #NB100-79907) diluted 500-fold with Perm Wash Buffer and 30-min incubation in the dark at room temperature. Cells underwent two rounds of Perm Wash buffer washes and centrifugation before the addition of the secondary antibody (100 μL Alexa Fluor 488 [Fab’] 2 fragments of goat anti-rabbit IgG [H+L]; Thermo Fisher Scientific) diluted 5,000-fold with Perm Wash buffer. After a 30-min incubation in the dark at room temperature, cells were washed once more and suspended with Stain Buffer (BD Biosciences). Cytomics FC500 MPL and data analysis software CXP Analysis (both from Beckman Coulter K.K, Shizuoka, Japan) were used for flow cytometry analysis. A gate containing the cell population of interest was created in a forward scatter and side scatter dot plot. […] The 7-AAD-positive cell rate (%) and the mean fluorescent intensity of BTK phosphorylation in cells in the relevant gate were measured. […]
T2 sequence (Q06187 whole entry): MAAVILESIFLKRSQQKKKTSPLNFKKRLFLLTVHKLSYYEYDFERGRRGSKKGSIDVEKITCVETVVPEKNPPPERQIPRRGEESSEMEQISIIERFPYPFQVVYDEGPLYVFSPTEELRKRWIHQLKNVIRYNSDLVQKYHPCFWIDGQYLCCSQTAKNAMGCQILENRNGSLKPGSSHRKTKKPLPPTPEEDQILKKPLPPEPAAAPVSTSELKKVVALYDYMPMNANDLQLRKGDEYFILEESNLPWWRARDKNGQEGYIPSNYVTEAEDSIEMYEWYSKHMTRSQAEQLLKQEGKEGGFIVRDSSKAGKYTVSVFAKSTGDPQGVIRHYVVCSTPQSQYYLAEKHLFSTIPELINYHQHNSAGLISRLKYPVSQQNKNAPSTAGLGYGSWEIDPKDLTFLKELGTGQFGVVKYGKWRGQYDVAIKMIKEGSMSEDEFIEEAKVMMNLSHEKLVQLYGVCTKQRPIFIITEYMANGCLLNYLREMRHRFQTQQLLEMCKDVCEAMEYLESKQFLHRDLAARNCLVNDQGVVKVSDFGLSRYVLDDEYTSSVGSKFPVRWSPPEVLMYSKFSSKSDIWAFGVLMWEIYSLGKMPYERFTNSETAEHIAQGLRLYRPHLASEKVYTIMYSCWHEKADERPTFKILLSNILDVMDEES

Another assay deals with RIPK2 (Homo sapiens, UniProt O43353). Briefly: KINOMEscan binding assay. The conditions noted are these: 300 nM; read-out: inhibition of kinase binding (KINOMEscan).
Sequence of RIPK2 (O43353 whole entry): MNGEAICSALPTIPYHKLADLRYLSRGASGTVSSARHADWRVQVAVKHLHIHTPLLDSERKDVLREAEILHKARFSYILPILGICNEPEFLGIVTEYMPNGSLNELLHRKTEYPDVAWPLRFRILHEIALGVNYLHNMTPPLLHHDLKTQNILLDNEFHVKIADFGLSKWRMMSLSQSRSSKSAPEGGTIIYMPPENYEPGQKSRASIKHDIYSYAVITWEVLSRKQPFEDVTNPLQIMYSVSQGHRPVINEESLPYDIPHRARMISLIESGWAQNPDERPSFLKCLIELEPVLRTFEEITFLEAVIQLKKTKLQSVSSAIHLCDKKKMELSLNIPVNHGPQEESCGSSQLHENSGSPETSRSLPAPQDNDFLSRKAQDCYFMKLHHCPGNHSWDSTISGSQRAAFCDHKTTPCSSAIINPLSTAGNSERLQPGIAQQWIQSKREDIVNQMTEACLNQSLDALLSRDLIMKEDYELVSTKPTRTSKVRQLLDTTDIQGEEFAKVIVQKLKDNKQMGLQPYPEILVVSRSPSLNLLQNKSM
A further assay deals with B-cells in human PBMC. Description: PBMC stimulation assay, anti-IgM-stimulated B-cell activation (CD69). The assay is classed as cell-based. The conditions noted are these: anti-IgM 1 μg/mL, 22 h, read-out: IC50 of CD69 inhibition, anti-IgM-stimulated B-cell activation. How it is done:
After culturing, the stimulated cells were stained with fluorescently labeled CD3, CD20, and CD69 antibodies. B-cells (identified by gating CD20-positive and CD3-negative cells) and T-cells (identified by gating CD3-positive and CD20-negative cells) were analyzed by flow cytometry to monitor the expression of CD69. […] GraphPad Prism version 5.04 (GraphPad Software, Inc., San Diego, CA, USA) and its base settings were used for initial values and convergence conditions.

Assay [2] addresses T2, BTK. Briefly: KINOMEscan binding assay. The conditions noted are these: 300 nM; read-out: inhibition of kinase binding (KINOMEscan).
Another assay has as its target T3, HUNK (Homo sapiens, UniProt P57058).
T3 sequence (P57058 1-714): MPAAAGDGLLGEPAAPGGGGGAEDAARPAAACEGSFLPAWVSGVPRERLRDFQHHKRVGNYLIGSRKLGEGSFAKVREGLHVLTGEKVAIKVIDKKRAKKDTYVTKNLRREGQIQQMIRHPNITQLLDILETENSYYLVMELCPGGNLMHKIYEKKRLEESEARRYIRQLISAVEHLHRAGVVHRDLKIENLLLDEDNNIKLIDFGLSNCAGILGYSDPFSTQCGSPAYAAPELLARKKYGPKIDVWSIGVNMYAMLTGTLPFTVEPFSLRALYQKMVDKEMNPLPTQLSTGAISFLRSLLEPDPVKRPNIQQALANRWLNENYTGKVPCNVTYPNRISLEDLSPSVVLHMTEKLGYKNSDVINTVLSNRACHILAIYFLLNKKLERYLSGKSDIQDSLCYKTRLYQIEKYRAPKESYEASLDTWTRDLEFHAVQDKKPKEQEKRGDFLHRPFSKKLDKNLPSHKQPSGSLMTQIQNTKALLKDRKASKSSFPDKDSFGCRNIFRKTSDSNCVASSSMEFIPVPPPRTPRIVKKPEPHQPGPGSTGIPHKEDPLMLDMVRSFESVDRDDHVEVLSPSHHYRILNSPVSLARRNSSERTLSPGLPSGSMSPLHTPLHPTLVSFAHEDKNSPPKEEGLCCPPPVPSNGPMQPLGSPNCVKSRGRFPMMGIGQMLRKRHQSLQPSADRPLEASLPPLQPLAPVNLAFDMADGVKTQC
Briefly: KINOMEscan binding assay. Details: purchased Eurofins DiscoverX (KINOMEscan scanMAX service). The conditions noted are these: 300 nM; read-out: inhibition of kinase binding (KINOMEscan).

The next assay has as its target TGFBR2 (Homo sapiens, UniProt P37173). Briefly: biochemical. More on the design: KINOMEscan scanMAX competition binding, DNA-tagged kinases, qPCR read-out, percent control at 300 nM. The settings on record: read-out: Percent control / Zanubrutinib.
The target of a further assay is HIPK2 (Homo sapiens, UniProt Q9H2X6). Briefly: biochemical. Details: KINOMEscan scanMAX competition binding, DNA-tagged kinases, qPCR read-out, percent control at 300 nM. The conditions noted are these: read-out: Percent control / Zanubrutinib.
Sequence of HIPK2 (Q9H2X6 whole entry): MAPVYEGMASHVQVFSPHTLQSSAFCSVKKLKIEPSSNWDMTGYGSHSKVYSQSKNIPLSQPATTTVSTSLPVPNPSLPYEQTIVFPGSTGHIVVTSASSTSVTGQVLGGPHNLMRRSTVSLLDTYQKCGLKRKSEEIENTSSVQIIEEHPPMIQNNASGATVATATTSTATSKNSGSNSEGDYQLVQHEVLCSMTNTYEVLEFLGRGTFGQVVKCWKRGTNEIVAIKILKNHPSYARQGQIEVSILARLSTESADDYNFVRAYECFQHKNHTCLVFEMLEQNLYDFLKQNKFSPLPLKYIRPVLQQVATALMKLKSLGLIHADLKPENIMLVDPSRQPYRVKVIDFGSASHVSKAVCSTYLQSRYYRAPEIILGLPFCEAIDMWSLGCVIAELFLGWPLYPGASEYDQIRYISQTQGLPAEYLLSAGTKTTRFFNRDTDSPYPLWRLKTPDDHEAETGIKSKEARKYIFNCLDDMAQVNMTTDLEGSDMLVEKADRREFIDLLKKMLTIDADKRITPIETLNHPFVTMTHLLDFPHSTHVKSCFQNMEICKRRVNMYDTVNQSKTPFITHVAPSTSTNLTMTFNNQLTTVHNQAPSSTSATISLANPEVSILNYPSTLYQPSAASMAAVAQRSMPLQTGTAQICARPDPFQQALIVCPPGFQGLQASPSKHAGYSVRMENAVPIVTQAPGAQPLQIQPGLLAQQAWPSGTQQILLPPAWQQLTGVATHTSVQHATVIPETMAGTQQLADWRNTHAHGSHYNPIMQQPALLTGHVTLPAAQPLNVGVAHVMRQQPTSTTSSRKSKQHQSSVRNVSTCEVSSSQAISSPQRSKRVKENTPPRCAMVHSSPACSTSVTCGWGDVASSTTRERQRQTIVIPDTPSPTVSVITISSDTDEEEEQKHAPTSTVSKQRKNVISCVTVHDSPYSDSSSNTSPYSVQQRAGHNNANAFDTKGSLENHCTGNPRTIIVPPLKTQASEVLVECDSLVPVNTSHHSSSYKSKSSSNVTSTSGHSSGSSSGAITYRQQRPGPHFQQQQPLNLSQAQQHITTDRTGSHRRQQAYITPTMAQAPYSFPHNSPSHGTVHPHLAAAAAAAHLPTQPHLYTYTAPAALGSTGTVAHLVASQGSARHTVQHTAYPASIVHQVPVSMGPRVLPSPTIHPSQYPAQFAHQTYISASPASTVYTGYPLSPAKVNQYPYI
Where [3] appears, read: at 100 nM, read-out: maximum growth inhibition rate.
Setting [4] is: read-out: IC50 of growth inhibition.

SMILES strings stand for the structures.

Sequence of TGFBR2 (P37173 whole entry): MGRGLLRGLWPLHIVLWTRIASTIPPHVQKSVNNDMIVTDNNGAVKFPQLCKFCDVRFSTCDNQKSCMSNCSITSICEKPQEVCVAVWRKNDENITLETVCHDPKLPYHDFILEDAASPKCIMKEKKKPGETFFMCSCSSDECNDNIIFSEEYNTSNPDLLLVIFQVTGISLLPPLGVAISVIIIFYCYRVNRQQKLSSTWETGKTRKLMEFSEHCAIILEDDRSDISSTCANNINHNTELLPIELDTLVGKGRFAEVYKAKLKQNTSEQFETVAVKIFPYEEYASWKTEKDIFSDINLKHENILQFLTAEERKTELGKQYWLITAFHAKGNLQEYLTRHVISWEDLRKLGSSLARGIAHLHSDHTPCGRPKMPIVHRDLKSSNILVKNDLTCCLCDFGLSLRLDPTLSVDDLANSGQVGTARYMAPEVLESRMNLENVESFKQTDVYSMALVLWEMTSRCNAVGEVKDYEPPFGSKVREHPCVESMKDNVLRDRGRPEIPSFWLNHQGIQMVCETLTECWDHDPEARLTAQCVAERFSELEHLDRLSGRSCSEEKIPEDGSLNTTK
T1 sequence (Q99683 whole entry): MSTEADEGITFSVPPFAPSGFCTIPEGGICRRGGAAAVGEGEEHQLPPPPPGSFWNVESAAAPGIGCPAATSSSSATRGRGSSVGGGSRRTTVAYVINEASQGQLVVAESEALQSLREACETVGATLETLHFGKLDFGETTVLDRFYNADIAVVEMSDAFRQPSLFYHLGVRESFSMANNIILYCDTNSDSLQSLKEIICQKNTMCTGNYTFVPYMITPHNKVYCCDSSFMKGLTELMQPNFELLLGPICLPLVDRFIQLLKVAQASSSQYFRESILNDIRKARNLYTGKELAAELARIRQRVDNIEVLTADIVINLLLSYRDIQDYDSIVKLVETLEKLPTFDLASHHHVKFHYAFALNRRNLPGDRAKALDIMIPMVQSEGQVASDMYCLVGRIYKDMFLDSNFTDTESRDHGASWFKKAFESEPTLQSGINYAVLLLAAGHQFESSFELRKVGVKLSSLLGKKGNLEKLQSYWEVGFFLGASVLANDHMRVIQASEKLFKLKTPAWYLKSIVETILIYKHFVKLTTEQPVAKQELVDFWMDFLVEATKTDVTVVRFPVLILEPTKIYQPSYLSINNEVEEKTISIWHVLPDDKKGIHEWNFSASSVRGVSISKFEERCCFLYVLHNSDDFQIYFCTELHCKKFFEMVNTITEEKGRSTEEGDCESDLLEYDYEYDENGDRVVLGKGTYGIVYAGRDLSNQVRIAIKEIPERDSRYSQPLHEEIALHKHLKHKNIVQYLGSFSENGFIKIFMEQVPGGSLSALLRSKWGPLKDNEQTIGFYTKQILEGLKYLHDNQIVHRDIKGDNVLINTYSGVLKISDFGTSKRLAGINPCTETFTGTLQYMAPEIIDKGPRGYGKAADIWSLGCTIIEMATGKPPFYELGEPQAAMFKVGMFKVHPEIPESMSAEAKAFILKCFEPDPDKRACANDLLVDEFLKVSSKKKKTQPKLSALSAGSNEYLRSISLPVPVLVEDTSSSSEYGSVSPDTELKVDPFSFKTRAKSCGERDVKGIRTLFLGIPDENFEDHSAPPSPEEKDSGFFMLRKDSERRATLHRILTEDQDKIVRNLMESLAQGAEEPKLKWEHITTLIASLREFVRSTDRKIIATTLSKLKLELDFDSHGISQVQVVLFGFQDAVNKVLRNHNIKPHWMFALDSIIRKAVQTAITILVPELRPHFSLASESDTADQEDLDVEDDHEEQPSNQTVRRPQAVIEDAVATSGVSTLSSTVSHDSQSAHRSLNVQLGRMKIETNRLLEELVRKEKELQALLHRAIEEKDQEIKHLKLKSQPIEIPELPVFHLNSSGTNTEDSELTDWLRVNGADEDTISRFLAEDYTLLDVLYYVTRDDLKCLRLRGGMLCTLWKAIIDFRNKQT

`CC#CC(=O)N1CCC[C@H]1c1nc(-c2ccc(C(=O)Nc3ccccn3)cc2)c2c(N)nccn12` [Acalabrutinib]: the remaining binding at 0.3 µM at ASK1 was 93%.
Turning to `CC#CC(=O)N1CC[C@@H](n2c(=O)n(-c3ccc(Oc4ccccc4)cc3)c3c(N)ncnc32)C1` [Tirabrutinib], the figures for the inhibition at 0.1 µM with U-2932 cells (setting [3]) and with TMD8 cells (setting [3]) were 30.8% and 98.6%, respectively. The results for the IC50 with U-2932 cells (setting [4]), in the assay with TMD8 cells (setting [4]) and in the assay on B-cells in human PBMC were 27.6 nM, 3.59 nM and 13.8 nM, respectively. Also, the inhibition at 1 mg/kg on BTK [1] (1 mg/kg BID 21 days) turned out to be 64%. Moreover, the inhibition at 3 mg/kg on BTK [1] (3 mg/kg BID 21 days) was determined as 79.2%. Further, the inhibition at 10 mg/kg on BTK [1] (10 mg/kg BID 21 days) was found to be 85.4%. The inhibition at 0.3 µM on RIPK2 worked out at 67%; on BTK [2], 97%; at HUNK it was 89%.
Consider `C=CC(=O)N1CCC([C@@H]2CCNc3c(C(N)=O)c(-c4ccc(Oc5ccccc5)cc4)nn32)CC1` [Zanubrutinib], for which the remaining binding at 0.3 µM at TGFBR2 worked out at 90%; at HIPK2, 87%.
